This is an account of results in ChEMBL document CHEMBL1143461, “Trifluoroethylamines as amide isosteres in inhibitors of cathepsin K” (Bioorg Med Chem Lett, 2005).

One assay addresses Procathepsin L (Homo sapiens, UniProt P07711). Nature of the assay: Inhibitory activity against cathepsin L from human.
Another assay has as its target Cathepsin B (Homo sapiens, UniProt P07858). Nature of the assay: Inhibitory activity against cathepsin B from human.
Assay [1] concerns the target T1, Cathepsin K (Homo sapiens, UniProt P43235). Nature of the assay: Inhibitory activity against cathepsin K using humanized rabbit enzyme. The arrangement: species or system Oryctolagus cuniculus.
The target of another assay is Cathepsin S (Homo sapiens, UniProt P25774). Nature of the assay: Inhibitory activity against cathepsin S from human.
Assay [2] addresses T1, Cathepsin K. Nature of the assay: Inhibitory activity against cathepsin K (10 pM) using humanized rabbit enzyme. The arrangement: species or system Oryctolagus cuniculus.
In assay [3] the target is T2, Cathepsin K (Homo sapiens) (UniProt P43235).
T2 sequence (whole entry): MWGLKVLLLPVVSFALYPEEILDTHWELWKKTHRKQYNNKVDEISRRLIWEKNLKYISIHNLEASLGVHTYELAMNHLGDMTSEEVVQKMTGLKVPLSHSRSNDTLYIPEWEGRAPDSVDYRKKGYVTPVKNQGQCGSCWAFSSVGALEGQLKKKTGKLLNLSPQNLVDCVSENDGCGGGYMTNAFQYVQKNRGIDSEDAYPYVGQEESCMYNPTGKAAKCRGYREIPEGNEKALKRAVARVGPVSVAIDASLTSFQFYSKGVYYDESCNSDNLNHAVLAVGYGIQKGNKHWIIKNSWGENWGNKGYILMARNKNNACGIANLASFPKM
Nature of the assay: pKa value determined against cathepsin K from humanized rabbit enzyme. Particulars: Oryctolagus cuniculus.

Assay [4] concerns the target T1, Cathepsin K. Nature of the assay: Inhibitory activity against cathepsin K from humanized rabbit enzyme. Details: species or system Oryctolagus cuniculus.

Sequence of Cathepsin S (P25774 whole entry): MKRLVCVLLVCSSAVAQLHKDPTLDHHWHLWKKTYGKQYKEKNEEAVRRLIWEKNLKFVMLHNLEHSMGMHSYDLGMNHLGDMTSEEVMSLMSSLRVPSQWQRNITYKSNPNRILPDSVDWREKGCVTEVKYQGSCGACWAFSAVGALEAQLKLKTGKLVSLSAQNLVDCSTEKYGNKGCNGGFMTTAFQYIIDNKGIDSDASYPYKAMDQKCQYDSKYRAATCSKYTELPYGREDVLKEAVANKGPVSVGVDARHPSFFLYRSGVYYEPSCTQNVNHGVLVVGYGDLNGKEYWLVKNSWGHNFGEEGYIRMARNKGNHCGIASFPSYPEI
Sequence of Procathepsin L (P07711 whole entry): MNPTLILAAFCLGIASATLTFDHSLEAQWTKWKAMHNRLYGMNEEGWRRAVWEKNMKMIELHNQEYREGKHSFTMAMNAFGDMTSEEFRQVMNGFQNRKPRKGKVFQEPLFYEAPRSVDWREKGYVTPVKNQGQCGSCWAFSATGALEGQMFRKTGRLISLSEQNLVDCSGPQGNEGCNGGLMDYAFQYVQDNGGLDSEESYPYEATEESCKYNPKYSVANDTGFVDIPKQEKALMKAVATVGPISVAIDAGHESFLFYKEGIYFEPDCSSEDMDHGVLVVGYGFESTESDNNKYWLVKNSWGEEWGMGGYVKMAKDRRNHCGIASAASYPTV

Regarding `CC(C)CC(NC(c1ccc(-c2ccc(N3CCNCC3)cc2)cc1)C(F)(F)F)C(=O)NCC#N` (stereo not drawn), the IC50 (in general, the point on the concentration scale where inhibition reaches its midpoint) against Procathepsin L is 68 nM; on Cathepsin B, over 10000 nM; against Cathepsin K [1], 4.6 nM; against Cathepsin S, 902 nM.

`CC(C)C[C@H](Nc1cscc1-c1ccc(N2CCNCC2)cc1)C(=O)NCC#N` registered an IC50 against Cathepsin K [1] of 1 nM.

Regarding `N#CCNC(=O)C1(NC(c2ccc(-c3ccc(N4CCNCC4)cc3)cc2)C(F)(F)F)CCCCC1` (stereo not drawn), the IC50 against Procathepsin L was over 10000 nM; against Cathepsin B, over 10000 nM; on Cathepsin K [1] it was 5 nM; against Cathepsin S, over 10000 nM.

Consider `CC(C)C[C@@H](C(=O)NCC#N)c1cccc(-c2ccc(N3CCNCC3)cc2)c1`, for which it took 11 nM to reach half-maximal inhibition against Cathepsin K [1] (IC50).

Take `N#CCNC(=O)C1(NC(=O)c2ccc(-c3ccc(N4CCNCC4)cc3)cc2)CCCCC1`: the IC50 is 2270 nM on Procathepsin L, 614 nM against Cathepsin B, 0.4 nM against Cathepsin K [1] and over 10000 nM on Cathepsin S.

Consider `CC(C)C[C@H](N[C@@H](c1ccc(-c2ccc(N3CCNCC3)cc2)cc1)C(F)(F)F)C(=O)NCC#N`, for which the 50% inhibitory concentration (IC50) on Procathepsin L was 47 nM; against Cathepsin B, 1110 nM; against Cathepsin K [2], at most 0.005 nM; against Cathepsin S it was 451 nM.

With `CC(C)C[C@H](NC(C#N)c1ccc(Br)cc1)C(=O)NCC#N` (stereo partly drawn), the midpoint of inhibition at Cathepsin K [1], the IC50, lay at 30 nM. The compound further had a pKa in assay [3] of 0.7.

As for `CC(C)C[C@H](NC(c1ccc(Br)cc1)c1ccc(S(C)(=O)=O)cc1)C(=O)NCC#N` (stereo partly drawn), at Cathepsin K [1], the half-inhibitory concentration (IC50) is 2.5 nM. The compound further returned a pKa in assay [3] of 4.6.

On to `CC(C)C[C@H](NCc1ccc(Br)cc1)C(=O)NCC#N`, for which the IC50 against Cathepsin K [1] was 802 nM. In assay [3], this compound came in with a pKa of 6.7.

With `CC(C)C[C@H](NC(c1ccc(Br)cc1)C(F)(F)C(F)(F)F)C(=O)NCC#N` (stereo partly drawn), half-maximal inhibition against Cathepsin K [1] (IC50) was put at 2.4 nM. The pKa in assay [3] was determined as 1.8.

As for `CC(C)C[C@H](NC(C)c1ccc(Br)cc1)C(=O)NCC#N` (stereo partly drawn), the 50% inhibitory concentration (IC50) at Cathepsin K [1] was determined as 988 nM. The compound further returned a pKa in assay [3] of 6.7.

As to `CC(C)C[C@H](NC(c1ccc(Br)cc1)C(F)(F)F)C(=O)NCC#N` (stereo partly drawn), the IC50 at Procathepsin L was found to be 34 nM; against Cathepsin B, 3350 nM; at Cathepsin K [1], 1.3 nM; at Cathepsin S, 121 nM; at Cathepsin K [4] it was 0.9 nM. Moreover, the pKa in assay [3] amounted to 1.3.

Turning to `CN1CCN(c2nc(-c3ccc(C(=O)NC4(C(=O)NCC#N)CCCCC4)cc3)cs2)CC1`, the IC50 at Procathepsin L was 3900 nM; against Cathepsin B it was 1050 nM; against Cathepsin K [1], 0.6 nM; on Cathepsin S it was over 10000 nM.
